pEC50: −log10 of the molar value. “Also recorded” adds a separate entry of the source. Starred links: 1 amine or outer side, 2 acyl side, 3 side chain; linkers in the order of their positions; H or OH if unused. Non-standard residues stand in square brackets, D forms with d. Residues, ends and D or L forms follow the SMILES beside them. Groups on a side chain read outwards from the residue. No end group written: not given here. *: point of attachment. Phe(4-CH2NH2) = NCc1ccc(C[C@H](N)C(=O)O)cc1; C18 diacid = O=C(O)CCCCCCCCCCCCCCCCC(=O)*; C16 diacid = O=C(O)CCCCCCCCCCCCCCC(=O)*; γGlu = O=C(O)[C@H](CCC(=O)[*:2])N[*:1]; Met(O2) = CS(=O)(=O)CC[C@H](N)C(=O)O; αMeD = C[C@](N)(CC(=O)O)C(=O)O; AEEA = NCCOCCOCC(=O)O; Aib = CC(C)(N)C(=O)O
Legend:
human GCGR = target: T1, human GCGR (Homo sapiens, UniProt P47871); assay: cAMP activity assay, cells expressing human GCGR; format: cell-based; details: for pEC50: cAMP production, cells expressing human GCGR, assay buffer with or without 20% human serum (not stated which), read-out: GCGR EC50 human; for hGCGR/hGLP1R (hTone): ratio of human GCGR EC50 to human GLP1R EC50
T1 construct: expressed in transfected cells; kept under Blasticidin and Hygromycin selection
Outline: (§1)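 Peptides as 10-point titrations from DMSO tested on cells expressing human GLP1R or GCGR. cAMP measured by luminescent kit after overnight room-temperature incubation in the dark. EC50 from four-parameter logistic fit; native GLP-1 and glucagon as controls.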

human GLP1R = target: T2, human GLP1R (Homo sapiens, UniProt P43220); assay: cAMP activity assay, cells expressing human GLP1R; format: cell-based; details: cAMP production, assay buffer with or without 20% human serum (not stated which)
T2 construct: expressed in transfected cells; kept under Blasticidin and Hygromycin selection
Outline: as §1

[1] = Duration of action in DIO mice: body weight after a single sc dose; format: in vivo; details: for change in body weight over four days: single sc dose at day zero, compared to liraglutide and semaglutide (FIG. 1A)
Protocol: (§2) In this example, the duration of action of several of the peptides or co-agonist peptides was evaluated in diet-induced obese (DIO) mice. The duration of action of the peptides were compared to the duration of action of Semaglutide (sema) and Liraglutide (lira). The peptides tested were SEQ ID NOs: 2, 19, 28, 29, and 33 (Seq 2, Seq 19, Seq 28, Seq 29, and Seq 33, respectively).

[2] = Duration of action in DIO mice: food intake after a single sc dose; format: in vivo; details: for change in food intake over four days: single sc dose at day zero, compared to liraglutide and semaglutide (FIG. 1B)
Protocol: as §2

[3] = Duration of action in DIO mice: blood glucose after a single sc dose; format: in vivo; details: single sc dose at day zero, compared to liraglutide and semaglutide (FIG. 1C)
Protocol: as §2

[4] = mouse, in vivo, sc
Protocol: DIO mice were divided into groups of eight mice per group and the initial average body weight, food intake and basal glucose of each group were matched. Each group of mice was subcutaneously (sc) injected with a single dose of peptide or vehicle control. The administered doses varied between 3 and 300 nmol/kg. […] A separate set of mice were treated with same dose of each peptide. Serial blood was taken at 5 hours, 24 hours, 48 hours and 72 hours post sc injection to measure drug exposure.

T1 sequence (P47871 26-477): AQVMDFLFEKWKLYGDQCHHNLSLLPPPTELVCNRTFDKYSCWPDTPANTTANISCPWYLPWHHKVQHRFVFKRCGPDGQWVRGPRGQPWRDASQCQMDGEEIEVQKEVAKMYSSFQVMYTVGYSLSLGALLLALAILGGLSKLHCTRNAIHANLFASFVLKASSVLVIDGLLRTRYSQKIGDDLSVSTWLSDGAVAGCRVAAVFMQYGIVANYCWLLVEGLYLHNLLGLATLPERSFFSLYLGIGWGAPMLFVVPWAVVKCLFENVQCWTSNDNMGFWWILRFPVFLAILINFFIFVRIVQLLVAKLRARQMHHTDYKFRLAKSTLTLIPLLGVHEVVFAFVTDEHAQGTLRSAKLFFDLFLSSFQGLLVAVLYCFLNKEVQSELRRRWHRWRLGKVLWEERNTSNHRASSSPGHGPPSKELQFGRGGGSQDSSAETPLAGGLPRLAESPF
T2 sequence (P43220 24-463): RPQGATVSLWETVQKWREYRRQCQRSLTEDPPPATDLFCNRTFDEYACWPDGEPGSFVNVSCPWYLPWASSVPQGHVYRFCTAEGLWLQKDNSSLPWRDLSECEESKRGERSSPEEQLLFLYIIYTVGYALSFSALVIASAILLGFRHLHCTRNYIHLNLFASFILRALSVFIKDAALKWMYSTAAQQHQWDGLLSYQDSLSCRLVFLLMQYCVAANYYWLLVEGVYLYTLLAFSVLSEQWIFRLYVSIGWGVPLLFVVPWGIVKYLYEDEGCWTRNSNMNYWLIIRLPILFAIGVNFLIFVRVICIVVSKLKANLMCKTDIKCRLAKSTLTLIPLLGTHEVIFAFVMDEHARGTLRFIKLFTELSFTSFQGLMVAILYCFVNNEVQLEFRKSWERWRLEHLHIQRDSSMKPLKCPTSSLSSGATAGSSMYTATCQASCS

Row | pEC50 (human GCGR) | hGCGR/hGLP1R (hTone) (human GCGR) | pEC50 (human GLP1R) | Molecule | change in body weight over four days [1] | change in food intake over four days [2] | further results
1 | 9.13 | 1.2 | 9.21 | CC(C)C[C@H](NC(=O)[C@H](CC(C)C)NC(=O)[C@H](CCCCN)NC(=O)[C@H](CO)NC(=O)[C@H](Cc1ccc(O)cc1)NC(=O)[C@H](CC(=O)O)NC(=O)[C@H](CO)NC(=O)[C@@H](NC(=O)[C@H](Cc1ccccc1)NC(=O)[C@@H](NC(=O)CNC(=O)[C@H](CCC(N)=O)NC(=O)C(C)(C)NC(=O)[C@@H](N)Cc1c[nH]cn1)[C@@H](C)O)[C@@H](C)O)C(=O)N[C@@H](CC(=O)O)C(=O)N[C@@H](C)C(=O)N[C@@H](CCCNC(=N)N)C(=O)N[C@@H](C)C(=O)N[C@@H](C)C(=O)N[C@@H](CCCCNC(=O)COCCOCCNC(=O)COCCOCCNC(=O)CC[C@H](NC(=O)CCCCCCCCCCCCCCCCC(=O)O)C(=O)O)C(=O)N[C@@H](CC(=O)O)C(=O)N[C@@H](Cc1ccccc1)C(=O)N[C@H](C(=O)N[C@@H](CCC(N)=O)C(=O)N[C@@H](Cc1c[nH]c2ccccc12)C(=O)N[C@@H](CC(C)C)C(=O)N[C@@H](CCS(C)(=O)=O)C(=O)N[C@@H](CC(=O)O)C(=O)N[C@H](C(N)=O)[C@@H](C)O)C(C)C [compound 76] (H-H[Aib]QGTFTSDYSKLLDARAAK([AEEA-AEEA-γGlu-C18 diacid])DFVQWL[Met(O2)]DT-NH2; N-terminus assumed) |  |  | 
2 | 8.96 | 2.3 | 9.33 | CC(C)C[C@H](NC(=O)[C@H](Cc1ccc(O)cc1)NC(=O)[C@H](CCCCN)NC(=O)[C@H](CO)NC(=O)[C@H](Cc1ccc(O)cc1)NC(=O)[C@H](CC(=O)O)NC(=O)[C@H](CO)NC(=O)[C@@H](NC(=O)[C@H](Cc1ccccc1)NC(=O)[C@@H](NC(=O)CNC(=O)[C@H](CCC(N)=O)NC(=O)C(C)(C)NC(=O)[C@@H](N)Cc1c[nH]cn1)[C@@H](C)O)[C@@H](C)O)C(=O)N[C@@H](CC(=O)O)C(=O)N[C@@H](C)C(=O)N[C@@H](CCCNC(=N)N)C(=O)N[C@@H](C)C(=O)N[C@@H](C)C(=O)N[C@@H](CCC(N)=O)C(=O)N[C@@H](CC(=O)O)C(=O)N[C@@H](Cc1ccccc1)C(=O)N[C@H](C(=O)N[C@@H](CCC(N)=O)C(=O)N[C@@H](Cc1c[nH]c2ccccc12)C(=O)N[C@@H](CC(C)C)C(=O)N[C@@H](CCS(C)(=O)=O)C(=O)N[C@@H](Cc1ccc(CNC(=O)COCCOCCNC(=O)COCCOCCNC(=O)CC[C@H](NC(=O)CCCCCCCCCCCCCCCCC(=O)O)C(=O)O)cc1)C(=O)N[C@H](C(N)=O)[C@@H](C)O)C(C)C [compound 77] (H-H[Aib]QGTFTSDYSKYLDARAAQDFVQWL[Met(O2)][Phe(4-CH2NH2)]([AEEA-AEEA-γGlu-C18 diacid])T-NH2; N-terminus assumed) |  |  | 
3 | 9.16 | 0.8 | 9.08 | CC(C)C[C@H](NC(=O)[C@H](CC(C)C)NC(=O)[C@H](CCCCN)NC(=O)[C@H](CO)NC(=O)[C@H](Cc1ccc(O)cc1)NC(=O)[C@H](CC(=O)O)NC(=O)[C@H](CO)NC(=O)[C@@H](NC(=O)[C@H](Cc1ccccc1)NC(=O)[C@@H](NC(=O)CNC(=O)[C@H](CCC(N)=O)NC(=O)C(C)(C)NC(=O)[C@@H](N)Cc1c[nH]cn1)[C@@H](C)O)[C@@H](C)O)C(=O)N[C@@H](CC(=O)O)C(=O)N[C@@H](C)C(=O)N[C@@H](CCCNC(=N)N)C(=O)N[C@@H](C)C(=O)N[C@@H](C)C(=O)N[C@@H](CCCCNC(=O)COCCOCCNC(=O)COCCOCCNC(=O)CC[C@H](NC(=O)CCCCCCCCCCCCCCCCC(=O)O)C(=O)O)C(=O)N[C@@H](CC(=O)O)C(=O)N[C@@H](Cc1ccccc1)C(=O)N[C@H](C(=O)N[C@@H](CCC(N)=O)C(=O)N[C@@H](Cc1c[nH]c2ccccc12)C(=O)N[C@@H](CC(C)C)C(=O)N[C@@H](CCS(C)(=O)=O)C(=O)N[C@@](C)(CC(=O)O)C(=O)N[C@H](C(N)=O)[C@@H](C)O)C(C)C [compound 79] (H-H[Aib]QGTFTSDYSKLLDARAAK([AEEA-AEEA-γGlu-C18 diacid])DFVQWL[Met(O2)][αMeD]T-NH2) |  |  | 
4 |  |  |  | HXQGTFTSDYSKYLDARAAK( ? -γE-C16—OH)DFVQWL2DT—NH2 (H[Aib]QGTFTSDYSKYLDARAAK([AEEA-AEEA-γGlu-C16 diacid])DFVQWL[Met(O2)]DT-NH2; N-terminus assumed; SMILES CC(C)C[C@H](NC(=O)[C@H](Cc1ccc(O)cc1)NC(=O)[C@H](CCCCN)NC(=O)[C@H](CO)NC(=O)[C@H](Cc1ccc(O)cc1)NC(=O)[C@H](CC(=O)O)NC(=O)[C@H](CO)NC(=O)[C@@H](NC(=O)[C@H](Cc1ccccc1)NC(=O)[C@@H](NC(=O)CNC(=O)[C@H](CCC(N)=O)NC(=O)C(C)(C)NC(=O)[C@@H](N)Cc1c[nH]cn1)[C@@H](C)O)[C@@H](C)O)C(=O)N[C@@H](CC(=O)O)C(=O)N[C@@H](C)C(=O)N[C@@H](CCCNC(=N)N)C(=O)N[C@@H](C)C(=O)N[C@@H](C)C(=O)N[C@@H](CCCCNC(=O)COCCOCCNC(=O)COCCOCCNC(=O)CC[C@H](NC(=O)CCCCCCCCCCCCCCC(=O)O)C(=O)O)C(=O)N[C@@H](CC(=O)O)C(=O)N[C@@H](Cc1ccccc1)C(=O)N[C@H](C(=O)N[C@@H](CCC(N)=O)C(=O)N[C@@H](Cc1c[nH]c2ccccc12)C(=O)N[C@@H](CC(C)C)C(=O)N[C@@H](CCS(C)(=O)=O)C(=O)N[C@@H](CC(=O)O)C(=O)N[C@H](C(N)=O)[C@@H](C)O)C(C)C) [SEQ ID NO: 19] | more pronounced and sustained change in body weight | more sustained reduction in food intake | change in body weight over eight days ([1]; single dose at 20 nmol/kg or 60 nmol/kg at day zero, compared to liraglutide and semaglutide (FIG. 3A)): more pronounced and sustained change in body weight; change in food intake over eight days ([2]; single dose at 20 nmol/kg or 60 nmol/kg at day zero, compared to liraglutide and semaglutide (FIG. 3B)): comparable to liraglutide or semiglutide in reducing food intake; blood glucose lowering effect over four days [3]: greater reduction in blood glucose; PK over three days [4]: more prolonged PK
5 |  |  |  | HXQGTFTSDYSKYLDARAAK( ? -γE-C18—OH)DFVQWL2DT—NH2 (H[Aib]QGTFTSDYSKYLDARAAK([AEEA-AEEA-γGlu-C18‑OH])DFVQWL[Met(O2)]DT-NH2) [SEQ ID NO: 29] |  |  | change in body weight over four days ([1]; listed as Seq 29): more pronounced and sustained change in body weight; also recorded: particularly pronounced; change in food intake over four days ([2]; listed as Seq 29): more sustained reduction in food intake; also recorded: particularly evident; blood glucose lowering effect over four days ([3]; listed as Seq 29): greater reduction in blood glucose; blood glucose lowering effect over four days ([3]; listed as Seq29): particularly effective
6 |  |  |  | HXQGTFTSDYSKYLDARAAK( ? -γE-C18—OH)DFVQWL2αMDT—NH2 (H[Aib]QGTFTSDYSKYLDARAAK([AEEA-AEEA-γGlu-C18‑OH])DFVQWL[Met(O2)][αMeD]T-NH2) [SEQ ID NO: 33] |  |  | change in body weight over four days ([1]; listed as Seq 33): more pronounced and sustained change in body weight; also recorded: particularly pronounced; change in food intake over four days ([2]; listed as Seq 33): more sustained reduction in food intake; also recorded: particularly evident; blood glucose lowering effect over four days ([3]; listed as Seq 33): greater reduction in blood glucose; also recorded: particularly effective; PK over three days [4]: more prolonged PK
7 |  |  |  | HXQGTFTSDpAF( ? -γE-C18—OH)SKYLDARAAQDFVQWL2DT—NH2 (H[Aib]QGTFTSD[Phe(4-CH2NH2)]([AEEA-AEEA-γGlu-C18‑OH])SKYLDARAAQDFVQWL[Met(O2)]DT-NH2) [SEQ ID NO: 28] | more pronounced and sustained change in body weight | more sustained reduction in food intake | blood glucose lowering effect over four days [3]: greater reduction in blood glucose
8 |  |  |  | HsQGTFTSDYSKYLDARAAK( ? -γE-C16—OH)DFVQWLLDT—NH2 (H[dS]QGTFTSDYSKYLDARAAK([AEEA-AEEA-γGlu-C16 diacid])DFVQWLLDT-NH2; N-terminus assumed; SMILES CC(C)C[C@H](NC(=O)[C@H](Cc1ccc(O)cc1)NC(=O)[C@H](CCCCN)NC(=O)[C@H](CO)NC(=O)[C@H](Cc1ccc(O)cc1)NC(=O)[C@H](CC(=O)O)NC(=O)[C@H](CO)NC(=O)[C@@H](NC(=O)[C@H](Cc1ccccc1)NC(=O)[C@@H](NC(=O)CNC(=O)[C@H](CCC(N)=O)NC(=O)[C@@H](CO)NC(=O)[C@@H](N)Cc1c[nH]cn1)[C@@H](C)O)[C@@H](C)O)C(=O)N[C@@H](CC(=O)O)C(=O)N[C@@H](C)C(=O)N[C@@H](CCCNC(=N)N)C(=O)N[C@@H](C)C(=O)N[C@@H](C)C(=O)N[C@@H](CCCCNC(=O)COCCOCCNC(=O)COCCOCCNC(=O)CC[C@H](NC(=O)CCCCCCCCCCCCCCC(=O)O)C(=O)O)C(=O)N[C@@H](CC(=O)O)C(=O)N[C@@H](Cc1ccccc1)C(=O)N[C@H](C(=O)N[C@@H](CCC(N)=O)C(=O)N[C@@H](Cc1c[nH]c2ccccc12)C(=O)N[C@@H](CC(C)C)C(=O)N[C@@H](CC(C)C)C(=O)N[C@@H](CC(=O)O)C(=O)N[C@H](C(N)=O)[C@@H](C)O)C(C)C) [SEQ ID NO: 2] | more pronounced and sustained change in body weight | more sustained reduction in food intake | 

Reference: US11492385B2, “Long-acting co-agonists of the glucagon and GLP-1 receptors” (Merck Sharp & Dohme Corp., priority 2015, dated 2022)
